Reference: patent US20170311602A1, “METHODS AND COMPOSITIONS FOR THE CONTROL OF FUNGAL PATHOGENS IN CROP PLANTS” (Monsanto Technology LLC, priority 2014, published 2017)

Tests used:
Format in all cases: in vivo
[1] = tested on: Colletotrichum graminicola; experiment: Tray seedling test, efficacy of seed treatment against Colletotrichum graminicola; details: FS100, 30 g ai/100 kg seeds; untreated (% damage) 22%
Protocol: (§1) The seed tested (Amadeo harvest 2008, TKW 331,3) was seeded in trays 20×20×6 cm, with 9 holes for water release in field soil/quartz sand mix (1:1). Two repetitions with 25 kernels each were treated using standard seed treatment techniques. Each tray contained a single isolate of either Fusarium verticillioides G679, Fusarium verticillioides S039/07, Fusarium verticillioides S149/08, Colletotrichum graminicola BF0911 or Colletotrichum graminicola CG-1. The fungi were grown on sterile wheat grains. Thereafter, wheat grains were roughly ground after incubation and dried. For inoculation, either 5 or 15 ml of inoculum were scattered between the seeds at sowing, followed by incubation for 7 days at 10° C., followed by 7 days 24° C./15° C. (day/night period). Plants were evaluated for a) initial emergence (number of plants), b) final emergence (number of plants), c) disease level. Seedlings were classified in 3 categories: low, moderate or sevre necrosis. The disease score was calculated as follows: […]

[2] = tested on: corn stalk rot susceptible hybrids; experiment: Greenhouse seedling emergence trial for seed safety of treated corn seed; details: number of plants emerged at day 7, five plants per pot
Protocol: Seeds treated with chemistry were evaluated for seed safety in greenhouse emergence trials. Seed treatment active ingredients were combined in a slurry mix with colorant, polymer, and water at the recommended rates and allowed to mix thoroughly. Using a Gustafson BMC lab treater the seed batch was deposited in the BMC coater and treatment slurry was injected and allowed to tumble for 35-40 seconds before being ejected into a bulk collection bin and transferred to a paper storage bag. Standard corn stalk rot susceptible hybrids were planted using six pot replicates of five plants per pot. The treatments were randomized in RCBD, blocked by GH watering trays. Planting media consisted of 3.5 inch pots with the following media: US10 soil and 50/50 mix of US10/REDIEARTH. Replicates were placed perpendicular to the greenhouse temperature gradient.
Initial daily emergence counts at spike emergence of first treatment, continued until emergence was complete in untreated control (7-10 days after planting). The final stand was calculated as the number of plants emerged at day 7. The stand AUC was calculated as the area under the emergence curve.

[3] = tested on: Colletotrichum graminicola; experiment: Field yield trial, seed treatments in inoculated soil plots; details: Acceleron 2013 base, N=10 locations, control 164.4
Protocol: (§2) Field trials were conducted to evaluate seed treatments for efficacy and yield. Field plots contained a single row or up to 4 rows by 20-40 feet. Smallest plot size was a single row by 20 feet. Four replications were typically used. The hybrids selected for the study were typically moderately susceptible to Anthracnose stalk rot, which indicates a susceptibility rating of at least 5-6 on a 9 point scale (1=highly resistant, 9=highly susceptible).
(§3) The typical growth stage for field inoculation was VT/R1 (tasseling/silking). For disease ratings, stalks were surface wounded using implements with needles that either provided shallow scratches on the surface of the stalk (˜1 cm depth) or shallow piercing wounds (˜1 cm depth). Concurrent with surface wounding, a spore suspension of Colletotrichum graminicola (C. graminicola) conidia is sprayed onto wounded area or injected into shallow wounds. The total volume of spore suspension applied was in the range of 1-5 mL. Yield trials were soil inoculated or non-inoculated (natural pressure). For soil inoculation the fungus was grown on sorghum seed and the infested sorghum seed was placed in furrow at planting of the trials.
(§4) Yield was determined in the following manner. The center two rows of the plot were harvested or both rows if it was a two row plot. The weight and percent moisture were recorded for each plot grain sample. The recorded plot weight and % moisture were converted to standardized weight using standard moisture of 15.5%. Each plot was normalized to kg/ha by interpolating plot yield area to hectares. Yield in bushels/acre (bu/A) was determined by interpolating plot yield area to acre and conversion to bu/A using a standard corn bushel weight of 56 lb.
All seeds, including control, were treated with Acceleron 2013 commercial seed treatment (disease control+insect control) as a base. N=10 locations.

[4] = tested on: Colletotrichum graminicola; experiment: Field trial, Anthracnose stalk rot disease severity after stalk wounding and inoculation; details: 60 g ai/100 kg seed; Acceleron 2013 base; N=3 locations; control (surface wounding) 2.9
Protocol: Field trials were conducted to evaluate seed treatments for efficacy and yield. Field plots contained a single row or up to 4 rows by 20-40 feet. Smallest plot size was a single row by 20 feet. Four replications were typically used. The hybrids selected for the study were typically moderately susceptible to Anthracnose stalk rot, which indicates a susceptibility rating of at least 5-6 on a 9 point scale (1=highly resistant, 9=highly susceptible). […] The typical growth stage for field inoculation was […]). For disease ratings, stalks were surface wounded using implements with needles that either provided shallow scratches on the surface of the stalk ( 1 cm depth) or shallow piercing wounds ( 1 cm depth). Concurrent with surface wounding, a spore suspension of Colletotrichum graminicola (C. graminicola) conidia is sprayed onto wounded area or injected into shallow wounds. The total volume of spore suspension applied was in the range of 1-5 mL. […] Disease development was monitored in control treatments and disease evaluations were usually targeted when disease index rating reached approximately 5 on a 1-9 scale in control treatments. […] 10 stalks were assessed per plot. […] The stalks were split and the number of internodes with disease symptoms was counted starting at the internode above top node with brace roots (disease incidence rating). […]

corn = experiment: Field yield trials, seed treatments in non-inoculated soil plots (natural pressure); details: Acceleron 2013 base; for Yield Trial 1: N=22 locations, control 174.9; for Yield Trial 2: N=24 locations, control 174.4
Protocol: as §2, §3, §4
All seeds, including control, were treated with Acceleron 2013 commercial seed treatment (disease+insect control) as a base. N=22 locations.
All seeds, including control, were treated with Acceleron 2013 commercial seed treatment (disease+insect control) as a base. N=24 locations.

Fusarium verticillioides = experiment: Tray seedling test, efficacy of seed treatment against Fusarium verticillioides; details: FS100, 30 g ai/100 kg seeds; untreated (% damage) 26%
Protocol: as §1

Question: Which results are given for CO/N=C(/C1=NOCCO1)c1ccccc1Oc1ncnc(Oc2ccccc2Cl)c1F [Fluoxastrobin, fluoxastrobin]?
Answer: Efficacy against Colletotrichum graminicola (av. 2 isolates) [1]: 88 % Abbott; Final Stand ([2]; 25 g ai/100 kg seed): 4.79; Final Stand ([2]; 50 g ai/100 kg seed): 4.67; Final Stand ([2]; 100 g ai/100 kg seed): 4.63; Final Stand ([2]; 200 g ai/100 kg seed): 4.83; Final Stand ([2]; 300 g ai/100 kg seed): 4.58; Final Stand ([2]; 400 g ai/100 kg seed): 4.99; Yield ([3]; 30 g/100 Kg seed): 169.4 bu/A; Yield ([3]; 60 g/100 Kg seed): 172 bu/A; Yield ([3]; 90 g/100 Kg seed): 171.8 bu/A; Disease Severity (nodes ≧50% necrosis) [4]: 1.5 nodes ≧50% necrosis; Yield Trial 1 (corn; 30 g/100 Kg seed): 175.9 Bu/acre; Yield Trial 2 (corn; 30 g/100 Kg seed): 175.9 Bu/acre; Yield Trial 1 (corn; 60 g/100 Kg seed): 179.1 Bu/acre; Yield Trial 2 (corn; 60 g/100 Kg seed): 177.6 Bu/acre; Yield Trial 2 (corn; 90 g/100 Kg seed): 176.3 Bu/acre; Efficacy against Fusarium verticillioides (av. of 3 isolates) (Fusarium verticillioides): 3 % Abbott

Question: What does the source list for OC(Cc1ccccc1Cl)(Cn1nc[nH]c1=S)C1(Cl)CC1 (centres unmarked) [Prothioconazole, prothioconazole]?
Answer: Efficacy against Colletotrichum graminicola (av. 2 isolates) [1]: 51 % Abbott; Final Stand ([2]; 25 g ai/100 kg seed): 4.88; Final Stand ([2]; 50 g ai/100 kg seed): 4.75; Final Stand ([2]; 100 g ai/100 kg seed): 4.58; Final Stand ([2]; 200 g ai/100 kg seed): 4.92; Yield ([3]; 30 g/100 Kg seed): 172.4 bu/A; Yield ([3]; 60 g/100 Kg seed): 173.6 bu/A; Yield ([3]; 90 g/100 Kg seed): 174 bu/A; Disease Severity (nodes ≧50% necrosis) [4]: 1.6 nodes ≧50% necrosis; Yield Trial 1 (corn; 30 g/100 Kg seed): 177.1 Bu/acre; Yield Trial 2 (corn; 30 g/100 Kg seed): 176.6 Bu/acre; Yield Trial 1 (corn; 60 g/100 Kg seed): 178.6 Bu/acre; Yield Trial 2 (corn; 60 g/100 Kg seed): 178.3 Bu/acre; Yield Trial 2 (corn; 90 g/100 Kg seed): 175.2 Bu/acre; Efficacy against Fusarium verticillioides (av. of 3 isolates) (Fusarium verticillioides): 47 % Abbott
